In brackets after ≈: the same amount, converted by molar mass. Like-named read-outs stand apart in the source and are kept apart here.
How the values were obtained:
Format in all cases: cell-based
Mucor plumbeus MUCL49355 = assay: MIC serial dilution assay; design: key: -: no inhibition observed under test conditions; settings: highest concentration 67 or 100 µg/mL
Text: (§1) The minimum inhibitory concentration (MIC) for each compound was ascertained in a serial dilution assay in 96-well microtiter plates, as previously published by Kuhnert et al., using YM media for yeasts and filamentous fungi and BD^TM Difco™ Mueller Hinton Broth for bacteria.

[1] = test system: Rhodotorula glutinis DSM10134; assay: MIC serial dilution assay; design: key: -: no inhibition observed under test conditions; settings: highest concentration 67 or 100 µg/mL
Text: as §1

[2] = test system: Micrococcus luteus DSM1790; assay: MIC serial dilution assay; design: key: -: no inhibition observed under test conditions; settings: highest concentration 67 or 100 µg/mL
Text: as §1

Pichia anomala DSM6766 = assay: MIC serial dilution assay; design: key: -: no inhibition observed under test conditions; settings: highest concentration 67 or 100 µg/mL
Text: as §1

Mucor hiemalis DSM2656 = assay: MIC serial dilution assay; design: key: -: no inhibition observed under test conditions; settings: highest concentration 67 or 100 µg/mL
Text: as §1

Bacillus subtilis DSM10 = assay: MIC serial dilution assay; design: key: -: no inhibition observed under test conditions; settings: highest concentration 67 or 100 µg/mL
Text: as §1

[3] = test system: Staphylococcus aureus DSM346; assay: MIC serial dilution assay; design: key: -: no inhibition observed under test conditions; settings: highest concentration 67 or 100 µg/mL
Text: as §1

Candida tenuis MUCL29892 = assay: MIC serial dilution assay; design: key: -: no inhibition observed under test conditions; settings: highest concentration 67 or 100 µg/mL
Text: as §1

Candida albicans DSM1665 = assay: MIC serial dilution assay; design: key: -: no inhibition observed under test conditions; settings: highest concentration 67 or 100 µg/mL
Text: as §1

[4] = test system: mouse fibroblast cell line L929; assay: In vitro cytotoxicity assay; settings: 120 h, 6 × 10^3 cells/well, treated over five days
Experimental: (§2) In vitro cytotoxicity assay was performed as described by Richter et al. against the mouse fibroblast cell line L929 and the cervix carcinoma cell line KB3.1.

[5] = test system: cervix carcinoma cell line KB3.1; assay: In vitro cytotoxicity assay; settings: Homo sapiens, KB 3-1, 120 h, 6 × 10^3 cells/well, treated over five days
Experimental: as §2

Huh7.5 Fluc cells = assay: Cell viability in HCV assay (firefly luciferase); settings: at 20 ng/µL
Experimental: (§3) Figure 4 Antiviral activity of 4-hydroxypleurogrisin (11). NC-Negative control, EGCG-Positive control. HCV assay was performed in triplicates and is presented as the mean ± standard deviation. The asterisk indicates statistically significant differences (* p ≤ 0.05, ** p ≤ 0.01, *** p ≤ 0.001). Huh-7.5 cells were inoculated with RLuc-Jc1 reporter viruses in the presence of 4-hydroxypleurogrisein. The inoculum was removed 4 h later and monolayers were washed three times with PBS and overlaid with fresh medium containing no inhibitors. Infected cells were lysed three days later, and reporter virus infection was determined by renilla luciferase activity (top). The cell viability was measured by determination of firefly luciferase (bottom), which is stably expressed in the target cells.
This assay was carried out as described previously by Mulwa et al.. Huh7.5 cells stably expressing Firefly luciferase (Huh7.5 Fluc) were cultured in Dulbecco’s modified minimum essential medium (DMEM, Life Technologies, Darmstadt, Germany) containing 2 mM L glutamine, 1 × minimum essential medium nonessential amino acids (MEM NEAA, Life Technologies), 100 μg/mL streptomycin, 100 IU/mL penicillin (Life Technologies), 5 μg/mL blasticidin and 10% fetal bovine serum. Cells were maintained in a 37 °C environment with 5% CO2 supply. […]

hepatitis C virus (HCV) = assay: Inhibitory effects on HCV infectivity (Renilla luciferase reporter virus in Huh-7.5 cells)
Experimental: as §3
This assay was carried out as described previously by Mulwa et al.. Huh7.5 cells stably expressing Firefly luciferase (Huh7.5 Fluc) were cultured in Dulbecco’s modified minimum essential medium (DMEM, Life Technologies, Darmstadt, Germany) containing 2 mM L glutamine, 1 × minimum essential medium nonessential amino acids (MEM NEAA, Life Technologies), 100 μg/mL streptomycin, 100 IU/mL penicillin (Life Technologies), 5 μg/mL blasticidin and 10% fetal bovine serum. Cells were maintained in a 37 °C environment with 5% CO2 supply. Cells were infected with Jc1-derived Renilla reporter viruses in the presence or absence of compounds as described previously. Infected cells were lysed and then frozen at −80 °C for 1 h following measurements of Renilla and Firefly luciferase activities on a Berthold Technologies Centro XS3 Microplate Luminometer (Bad Wildbad, Germany) as indicators of viral genome replication and cell viability, respectively.

| Molecule | MIC (Mucor plumbeus MUCL49355) | MIC [1] | MIC [2] | MIC (Pichia anomala DSM6766) | MIC (Mucor hiemalis DSM2656) | MIC (Bacillus subtilis DSM10) | MIC [3] | MIC (Candida tenuis MUCL29892; Yamadazyma tenuis, read-out: MIC) | MIC (Candida albicans DSM1665) | IC50 [4] | IC50 [5] | MIC (Bacillus subtilis DSM10; read-out: MIC) | MIC (Candida tenuis MUCL29892) | cytotoxic effects (cell viability, firefly luciferase) (Huh7.5 Fluc cells) | MIC ([2]; read-out: MIC) | MIC ([3]; read-out: MIC) | IC50 (hepatitis C virus (HCV); Hepatitis C virus, Huh7.5, read-out: IC50 of HCV infectivity) | activity in the HCV assay in vitro (hepatitis C virus (HCV); Huh-7.5 host cells) | inhibitory effect on HCV infectivity (hepatitis C virus (HCV); at 10 ng/µL) |
| --- | --- | --- | --- | --- | --- | --- | --- | --- | --- | --- | --- | --- | --- | --- | --- | --- | --- | --- | --- |
| C=C1CO[C@@H]2c3c(O)ccc(O)c3[C@H]3OC(=O)[C@@H]4CC[C@H]5[C@@H]1CC[C@@]25[C@@H]34 [Compound 9, Nematoctone] | - | - | - | - | - | - | - | 25 µg/mL (≈ 70.5 µM) | - | 21 µg/mL (≈ 59.3 µM) | 18 µg/mL (≈ 50.8 µM) |  |  |  |  |  |  |  |  |
| C[C@H](CO)[C@H]1CC[C@]23C(=O)c4c(O)ccc(O)c4C(=O)[C@H]2[C@H](C(=O)O)CC[C@@H]13 [Compound 10, Di-oxo-leucopleurotinic acid] | - | - | - | - | - |  | - |  | - | 22 µg/mL (≈ 56.6 µM) | 22 µg/mL (≈ 56.6 µM) | 100 µg/mL (≈ 257 µM) | - |  |  |  |  |  |  |
| CC(C)(O)C1CCC23CC4=C(CC2C(O)(CO)CCC13)C(=O)C=CC4=O (stereo not drawn) [Compound 11, 4-Hydroxypleurogrisein] | - | - |  | - | - |  |  |  | - | 6.9 µg/mL (≈ 19.1 µM) | 7.5 µg/mL (≈ 20.8 µM) | 50 µg/mL (≈ 139 µM) | - | cytotoxic effects were noted | 66.7 µg/mL (≈ 185 µM) | 33.3 µg/mL (≈ 92.4 µM) | ~5 µg/mL (≈ 13.9 µM) | significant activities in vitro | strong inhibitory effect |
| C/C(=C\c1csc(C)n1)[C@@H]1C[C@@H]2O[C@]2(C)CCC[C@H](C)[C@H](O)[C@@H](C)C(=O)C(C)(C)[C@@H](O)CC(=O)O1 [Epothilone B, reference compound] |  |  |  |  |  |  |  |  |  | 0.00062 µg/mL (≈ 0.00122 µM) | 3e-05 µg/mL (≈ 5.91e-05 µM) |  |  |  |  |  |  |  |  |
| C[C@@H]1[C@H](O)[C@@H](C)/C=C/C=C/CC/C=C/C=C/C=C/C=C/C(O[C@H]2O[C@H](C)[C@@H](O)[C@H](N)[C@@H]2O)CC2O[C@](O)(CC(O)C(O)CCC(O)CC(O)CC(O)CC(=O)O[C@H]1C)CC(O)C2C(=O)O (stereo partly drawn) [Nystatin, reference compound] | Nystatin (12.5) µg/mL | Nystatin (16.7) µg/mL |  | Nystatin (16.7) µg/mL | Nystatin (16.7) µg/mL |  |  |  | Nystatin (16.7) µg/mL |  |  |  | Nystatin (12.5) µg/mL |  |  |  |  |  |  |
| CN(C)[C@@H]1C(O)=C(C(N)=O)C(=O)[C@@]2(O)C(O)=C3C(=O)c4c(O)cccc4[C@@](C)(O)[C@H]3[C@H](O)[C@@H]12 [Oxytetracycline, reference compound] |  |  |  |  |  |  |  |  |  |  |  |  |  |  | 0.4 µg/mL (≈ 0.869 µM) | 6.7 µg/mL (≈ 14.6 µM) |  |  |  |
| Penicillin [reference compound] |  |  |  |  |  | Penicillin (6.3) µg/mL |  |  |  |  |  |  |  |  |  |  |  |  |  |

Source: paper PMC6222660, “Antiviral 4-Hydroxypleurogrisein and Antimicrobial Pleurotin Derivatives from Cultures of the Nematophagous Basidiomycete Hohenbuehelia grisea” (Molecules : A Journal of Synthetic Chemistry and Natural …, 2018)
